Measured values as given in paper PMC7093416, “Selective USP7 inhibition elicits cancer cell killing through a p53-dependent mechanism” (Scientific Reports, 2020).

Tested on: panel of 484 cancer cell lines
Assay: PRISM cancer cell line profiling, 5 days
Assay type: cell-based
Parameters: AUC: unit not given beside the values
Method: Cancer cell line profiling was performed using the Broad’s PRISM platform. Cell treatment and data analysis were performed as described in Yu et al[42]. Raw Luminex signal was converted to AUC values for each cell line as described. The resulting AUC profile for each compound was modeled against DepMap using the limma package in R[71]. Because hotspot mutation analysis was performed against DepMap, TP53 annotations in Fig. 6c,d are directly from DepMap.

COc1ccc(C2=N[C@@H](c3ccc(Cl)cc3)[C@@H](c3ccc(Cl)cc3)N2C(=O)N2CCNC(=O)C2)c(OC(C)C)c1 [Nutlin-3A]
AUC (NCIH2170_LUNG): 1.154
AUC (NCIH2172_LUNG): 1.147
AUC (NCIH2228_LUNG): 1.087
AUC (NCIH2347_LUNG): 0.9531
AUC (NCIH2444_LUNG): 1.324
AUC (NCIH2452_PLEURA): 1.028
AUC (NCIN87_STOMACH): 1.465
AUC (NUGC3_STOMACH): 1.1161
AUC (NUGC4_STOMACH): 0.888
AUC (OAW42_OVARY): 1.011
AUC (OC314_OVARY): 0.964
AUC (OC316_OVARY): 0.9756
AUC (OE19_OESOPHAGUS): 1.199
AUC (OE21_OESOPHAGUS): 1.087
AUC (OE33_OESOPHAGUS): 0.9763
AUC (ONCODG1_OVARY): 1.1325
AUC (ONS76_CENTRAL_NERVOUS_SYSTEM): 0.8865
AUC (OSRC2_KIDNEY): 0.8477
AUC (OUMS23_LARGE_INTESTINE): 1.065
AUC (OV56_OVARY): 1.192
AUC (OVCAR8_OVARY): 1.207
AUC (OVISE_OVARY): 0.8578
AUC (OVK18_OVARY): 0.8595
AUC (OVSAHO_OVARY): 1.156
AUC (OVTOKO_OVARY): 0.9039
AUC (PANC1_PANCREAS): 1.1
AUC (PANC0203_PANCREAS): 1.166
AUC (PANC0327_PANCREAS): 1.409
AUC (PANC0403_PANCREAS): 1.138
AUC (PANC0813_PANCREAS): 1.0676
AUC (PANC1005_PANCREAS): 1.216
AUC (PATU8902_PANCREAS): 1.154
AUC (PATU8988S_PANCREAS): 1.234
AUC (PATU8988T_PANCREAS): 1.162
AUC (PC3_PROSTATE): 0.976
AUC (PC14_LUNG): 1.1376
AUC (PECAPJ15_UPPER_AERODIGESTIVE_TRACT): 1.095
AUC (PECAPJ41CLONED2_UPPER_AERODIGESTIVE_TRACT): 1.019
AUC (PECAPJ49_UPPER_AERODIGESTIVE_TRACT): 1.2004
AUC (PK1_PANCREAS): 1.122
AUC (PK45H_PANCREAS): 1.1189
AUC (PK59_PANCREAS): 1.0633
AUC (PLCPRF5_LIVER): 1.234
AUC (PSN1_PANCREAS): 1.126
AUC (QGP1_PANCREAS): 1.087
AUC (RCC10RGB_KIDNEY): 0.8832
AUC (RCM1_LARGE_INTESTINE): 1.202
AUC (RD_SOFT_TISSUE): 1.042
AUC (RERFLCAD1_LUNG): 1.147
AUC (RERFLCAD2_LUNG): 1.183
AUC (RERFLCAI_LUNG): 1.0697
AUC (RERFLCKJ_LUNG): 1.11
AUC (RERFLCMS_LUNG): 1.091
AUC (RH30_SOFT_TISSUE): 1.041
AUC (RKN_SOFT_TISSUE): 1.06
AUC (RKO_LARGE_INTESTINE): 0.9236
AUC (RL952_ENDOMETRIUM): 0.9689
AUC (RMGI_OVARY): 0.9145
AUC (RMUGS_OVARY): 1.151
AUC (RT4_URINARY_TRACT): 1.199
AUC (RT112_URINARY_TRACT): 0.9358
AUC (RVH421_SKIN): 1.087
AUC (S117_SOFT_TISSUE): 1.193
AUC (SBC5_LUNG): 1.066
AUC (SCABER_URINARY_TRACT): 1.156
AUC (SCC25_UPPER_AERODIGESTIVE_TRACT): 1.213
AUC (SF126_CENTRAL_NERVOUS_SYSTEM): 0.9298
AUC (SF295_CENTRAL_NERVOUS_SYSTEM): 1.194
AUC (SF539_CENTRAL_NERVOUS_SYSTEM): 1.114
AUC (SH4_SKIN): 0.9981
AUC (SH10TC_STOMACH): 1.171
AUC (SIMA_AUTONOMIC_GANGLIA): 1.067
AUC (SJSA1_BONE): 0.8737
AUC (SKES1_BONE): 1.109
AUC (SKHEP1_LIVER): 0.8252
AUC (SKLU1_LUNG): 1.249
AUC (SKMEL2_SKIN): 1.0683
AUC (SKMEL3_SKIN): 1.137
AUC (SKMEL5_SKIN): 0.8995
AUC (SKMEL24_SKIN): 0.8575
AUC (SKMEL30_SKIN): 1.211
AUC (SKMES1_LUNG): 0.9911
AUC (SKNAS_AUTONOMIC_GANGLIA): 1.242
AUC (SKNBE2_AUTONOMIC_GANGLIA): 1.137
AUC (SKOV3_OVARY): 1.101
AUC (SKUT1_SOFT_TISSUE): 1.057
AUC (SNB75_CENTRAL_NERVOUS_SYSTEM): 1.2
AUC (SNGM_ENDOMETRIUM): 1.197
AUC (SNU46_UPPER_AERODIGESTIVE_TRACT): 1.125
AUC (SNU61_LARGE_INTESTINE): 1.275
AUC (SNU81_LARGE_INTESTINE): 1.088
AUC (SNU213_PANCREAS): 1.089
AUC (SNU245_BILIARY_TRACT): 1.207
AUC (SNU308_BILIARY_TRACT): 1.147
AUC (SNU398_LIVER): 1.135
AUC (SNU407_LARGE_INTESTINE): 0.9535
AUC (SNU410_PANCREAS): 1.257
AUC (SNU423_LIVER): 0.9946
AUC (SNU449_LIVER): 1.202
AUC (SNU466_CENTRAL_NERVOUS_SYSTEM): 1.108
AUC (SNU601_STOMACH): 1.158
AUC (SNU668_STOMACH): 0.9614
AUC (SNU685_ENDOMETRIUM): 1.162
AUC (SNU719_STOMACH): 1.114
AUC (SNU738_CENTRAL_NERVOUS_SYSTEM): 1.181
AUC (SNU761_LIVER): 1.163
AUC (SNU840_OVARY): 0.883
AUC (SNU869_BILIARY_TRACT): 1.149
AUC (SNU886_LIVER): 1.1718
AUC (SNU1041_UPPER_AERODIGESTIVE_TRACT): 1.098
AUC (SNU1066_UPPER_AERODIGESTIVE_TRACT): 1.273
AUC (SNU1076_UPPER_AERODIGESTIVE_TRACT): 1.222
AUC (SNU1077_ENDOMETRIUM): 1.256
AUC (SNU1079_BILIARY_TRACT): 1.079
AUC (SNU1105_CENTRAL_NERVOUS_SYSTEM): 1.1033
AUC (SNU1196_BILIARY_TRACT): 1.008
AUC (SNU1214_UPPER_AERODIGESTIVE_TRACT): 1.185
AUC (SNUC2A_LARGE_INTESTINE): 1.021
AUC (SNUC4_LARGE_INTESTINE): 0.9159
AUC (SNUC5_LARGE_INTESTINE): 1.066
AUC (SQ1_LUNG): 1.1
AUC (SUIT2_PANCREAS): 1.124
AUC (SW48_LARGE_INTESTINE): 0.6832
AUC (SW480_LARGE_INTESTINE): 1.185
AUC (SW579_THYROID): 1.033
AUC (SW620_LARGE_INTESTINE): 1.193
AUC (SW780_URINARY_TRACT): 0.8319
AUC (SW837_LARGE_INTESTINE): 1.121
AUC (SW900_LUNG): 1.197
AUC (SW948_LARGE_INTESTINE): 1.0613
AUC (SW1088_CENTRAL_NERVOUS_SYSTEM): 1.216
AUC (SW1271_LUNG): 0.9516
AUC (SW1353_BONE): 1.036
AUC (SW1573_LUNG): 0.9119
AUC (SW1710_URINARY_TRACT): 1.113
AUC (SW1990_PANCREAS): 1.0624
AUC (T3M10_LUNG): 1.167
AUC (T24_URINARY_TRACT): 1.096
AUC (T47D_BREAST): 1.041
AUC (T98G_CENTRAL_NERVOUS_SYSTEM): 0.9597
AUC (TCCPAN2_PANCREAS): 1.066
AUC (TCCSUP_URINARY_TRACT): 1.257
AUC (TE1_OESOPHAGUS): 1.118
AUC (TE4_OESOPHAGUS): 1.169
AUC (TE5_OESOPHAGUS): 1.116
AUC (TE6_OESOPHAGUS): 1.1488
AUC (TE8_OESOPHAGUS): 1.279
AUC (TE9_OESOPHAGUS): 0.9402
AUC (TE10_OESOPHAGUS): 1.052
AUC (TE11_OESOPHAGUS): 1.135
AUC (TEN_ENDOMETRIUM): 1.229
AUC (TM31_CENTRAL_NERVOUS_SYSTEM): 1.145
AUC (TM87_SOFT_TISSUE): 0.8528
AUC (TOV21G_OVARY): 0.8573
AUC (TOV112D_OVARY): 1.15
mean diff. between TP53 functional WT and functional mutant populations (AUC) (TP53 annotation by functional scores of Giacomelli et al.): 0.165 ± 0.011
AUC (TT2609C02_THYROID): 1.113
AUC (TT_OESOPHAGUS): 1.115
AUC (TT_THYROID): 0.8544
AUC (TUHR4TKB_KIDNEY): 0.8234
AUC (U2OS_BONE): 0.8753
AUC (U118MG_CENTRAL_NERVOUS_SYSTEM): 1.124
AUC (U251MG_CENTRAL_NERVOUS_SYSTEM): 1.1855
AUC (UACC62_SKIN): 0.841
AUC (UACC257_SKIN): 0.9099
AUC (UBLC1_URINARY_TRACT): 1.2
AUC (UMUC1_URINARY_TRACT): 1.103
AUC (UO31_KIDNEY): 0.9228
AUC (VMCUB1_URINARY_TRACT): 1.108
AUC (VMRCRCW_KIDNEY): 1.098
AUC (VMRCRCZ_KIDNEY): 1.139
AUC (WM88_SKIN): 0.8161
AUC (WM793_SKIN): 0.8713
AUC (WM983B_SKIN): 0.9957
AUC (WM1799_SKIN): 0.8817
AUC (WM2664_SKIN): 0.8653
AUC (YAPC_PANCREAS): 1.201
AUC (YD8_UPPER_AERODIGESTIVE_TRACT): 1.226
AUC (YD10B_UPPER_AERODIGESTIVE_TRACT): 1.17
AUC (YD15_SALIVARY_GLAND): 1.2
AUC (YD38_UPPER_AERODIGESTIVE_TRACT): 1.227
AUC (YH13_CENTRAL_NERVOUS_SYSTEM): 1.109
AUC (YKG1_CENTRAL_NERVOUS_SYSTEM): 1.146
AUC (ZR751_BREAST): 1.121
